Data as given in article PMC12381781, “Structural and functional insights into the selective inhibition of mutant tau aggregation by purpurin and oleocanthal in frontotemporal dementia” (Protein Science : A Publication of the Protein Society, 2025).
Read-outs that look alike come from different tables or passages of the source.

Columns and labels:
R2R3 (WT) tau peptide = biological target: T1, R2R3 (WT) tau peptide (Homo sapiens, UniProt P10636); experiment: Atomic force microscopy of R2R3 (WT) aggregates; type: biochemical; conditions: compound 10 μM, 48 h
T1 construct: Peptides spanning R2R3—including PHF6 and PHF6*; purchased ProteoGenix (Schiltigheim, France); host or cells: chemical synthesis (custom peptide)
Experimental: (§1) Aggregates collected after 48 h of aggregation were processed for AFM analysis as described previously (Annadurai, Malina, Malohlava, et al., [2022]).

R2R3 (V287I) tau peptide = R2R3 (V287I) tau peptide (Homo sapiens, UniProt P10636, V604I); experiment: Atomic force microscopy of R2R3 (V287I) aggregates; type: biochemical; conditions: compound 10 μM, 48 h
Experimental: as §1

R2R3 (P301L) tau peptide [1] = biological target: T2, R2R3 (P301L) tau peptide (Homo sapiens, UniProt P10636, P618L); experiment: ThT aggregation assay of monomeric R2R3 (P301L) peptide; type: biochemical; conditions: for ThT-stained aggregates, confocal imaging: R2R3 P301L, end of ThT assay
Experimental: The aggregation kinetics of tau peptides were monitored using a ThT assay. A 40 μL reaction mixture containing 15 μM ThT (Sigma‐Aldrich, Cat. # T3516‐5G) and 50 μM peptide in the absence (control) or presence of 0.1 μM, 1 μM, and 10 μM PUR or OLC was prepared on ice in aggregation buffer (20 mM Tris [pH 7.4], 100 mM NaCl, 1 mM ethylenediaminetetraacetic acid [EDTA]) containing 5 μM heparin (Sigma‐Aldrich, Cat. #H4784). dithiothreitol (DTT) was excluded to avoid its differential effects on the aggregation kinetics of tau peptides containing Cys291 or Cys322 and to prevent peroxide generation by redox‐active compounds like PUR, which can lead to oxidative artifacts and false‐positive inhibition signals, as reported in our previous study (Annadurai, Malina, Salmona, et al., [2022]). This mixture was then dispensed into a clear‐bottom, black 384‐well ViewPlate (Revvity, Waltham, MA, United States; Part # 6007460) and sealed with a TopSealA‐PLUS (Revvity) to prevent evaporation.
Aggregation was monitored using EnSpire Multimode Plate Reader (Revvity) at 37°C with constant agitation (1000 rpm). To minimize condensation, the upper heater temperature was set to 2°C higher than the lower heater temperature. ThT fluorescence (ThT—λ ex: 460–490 nm and λem: 500–550 nm) was recorded every 5–10 min for 48 h.
ThT fluorescence curves were fitted to a sigmoidal function in GraphPad Prism (version 10, San Diego, CA, USA) using the following equation:
Y=Top/1+expV50–X/Slope , where Y is the ThT fluorescence intensity, X is time (h), Top is the maximum fluorescence intensity, V50 is the time to reach 50% of Top, and Slope describes the steepness of the aggregation transition. Baseline fluorescence at the start of the measurements was relatively low across samples and was not separately fitted. In samples showing early increases in fluorescence, the aggregation trajectory was modeled directly without introducing an independent baseline parameter.
The V50 value obtained from each replicate was used as the aggregation t 1/2 for statistical analysis.
To evaluate the effect of compounds on the extent of aggregation, the AUC was calculated for each replicate ThT fluorescence curve using GraphPad Prism. AUC values were then normalized to the mean AUC of the untreated control group and expressed as “aggregation (% of control),” serving as an indirect and comparative measure of fibril formation.
Figure S11. Confocal imaging of ThT-stained aggregates formed in the presence of PUR and OLC (corresponding to Figure 3). At the end of the ThT aggregation assay, reaction mixtures containing WT or mutant R2R3 tau peptides (P301L, V287I, N279K), incubated in the absence (CTL) or presence of 10 µM PUR or OLC, were collected from assay wells, embedded in 0.05% low-melting agarose, and imaged. ThT fluorescence was acquired using a Yokogawa Cell Voyager 7000S high-content imaging system equipped with a 20× objective (Ex: 460–490 nm, Em: 500–550 nm) and analyzed with Signals Image Artist (Revvity). […] Scale bar: 20 μm.

R2R3 (P301L) tau peptide [2] = biological target: T2, R2R3 (P301L) tau peptide; experiment: Atomic force microscopy of R2R3 (P301L) aggregates; type: biochemical; conditions: compound 10 μM, 48 h
Experimental: as §1

R2R3 (N279K) tau peptide = R2R3 (N279K) tau peptide (Homo sapiens, UniProt P10636, N596K); experiment: SPR titration cycle kinetics, immobilized R2R3 (N279K) peptide; type: binding
Experimental: SPR experiments were conducted using the Sierra® SPR‐24 Pro system (Bruker Daltonics, Bremen, Germany), featuring a gold‐coated microfluidic array (24 detection spots, 3 × 8 format). Data acquisition and kinetic analysis were performed using SPR Analyzer 4 software.
All experiments were conducted at 25°C using PBS (pH 7.4) supplemented with 0.05% Tween‐20 and 5% DMSO as the running buffer to ensure assay reproducibility. Assay components, including 96‐well microtiter plates (Part # 1862984; Burker) and Microplate and Reservoir Sealer (Part #1862985; Burker), were used for sample handling and were compatible with the Sierra SPR®‐24 Pro system (Bruker Daltonics, Billerica, MA, USA).
WT and mutant (P301L, V287I, and N279K) tau peptides were dissolved in 10 mM sodium acetate buffer (pH 5.0; Burker) and immobilized onto High‐Capacity Amine Sensor Surfaces (Part #1862614; Bruker) using the Amine Coupling Kit (Part #1862634; Bruker). The sensor surface was preconditioned with a Surface Elution Buffer (Part #1862656; Bruker Daltonics) and 0.1M HCl to remove contaminants and improve binding specificity.
The surface was activated using 400 mM 1‐ethyl‐3‐(3‐dimethylaminopropyl) carbodiimide (Burker) and 50 mM N‐hydroxysuccinimide (Burker), enabling covalent attachment of tau peptides. Unreacted binding sites were blocked with 1M ethanolamine‐HCl (pH 8.5; Burker) to minimize nonspecific interactions. For each experiment, specific sensor spots (A/B/C) on channels 1–8 were designated for tau‐analyte interactions, with corresponding reference spots on the same channel for baseline correction. DMSO calibration solutions (4.6%, 4.8%, 5%, 5.2%, and 5.4%) were prepared for double referencing to compensate for DMSO solvent effects.
PUR and OLC were prepared in PBS (pH 7.4) supplemented with 0.05% Tween‐20 and 5% DMSO. Compound interactions with tau peptides were pre‐screened using a concentration range of 1–100 μM, and subsequent binding kinetics were evaluated at optimized concentrations. For kinetic studies, PUR was tested at […], while OLC was tested at 25–100 μM using two‐fold serial dilutions. Each analyte was sequentially injected, and association and dissociation phases were monitored to determine kinetic parameters.
SPR binding kinetics were assessed using the titration cycle kinetics (TCK) assay, which included consecutive association phases followed by a single dissociation phase. Pre‐assay simulations using the Kinetic Simulator feature of SPR Analyzer 4 software were used to optimize analyte concentration ranges and association/dissociation times. A reference blank injection was included for double referencing, and a single dissociation curve was recorded for the highest analyte concentration.
Sensorgrams were analyzed using the Kinetic Titration model, which was integrated into the global kinetic fitting model of the SPR Analyzer 4 software. This approach allowed for baseline correction and improved the reliability of kinetic parameters, including the Kon, Koff, and KD.
TCK‐derived kinetic parameters were compared across multiple runs and confirmed using Multi Injection Cycle Kinetics to validate reproducibility and accuracy.

T2 sequence (P10636 592-653 P618L): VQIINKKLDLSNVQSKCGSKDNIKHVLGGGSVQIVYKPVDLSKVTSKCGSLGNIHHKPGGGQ
Chain of R2R3 (N279K) tau peptide (P10636 592-653 N596K): as the sequence (P10636 592-653 P618L) above, with N5K, L27P counted along it
Chain of R2R3 (V287I) tau peptide (P10636 592-653 V604I): as the sequence (P10636 592-653 P618L) above, with V13I, L27P counted along it
T1 sequence (P10636 592-653 limits assumed): as the sequence (P10636 592-653 P618L) above, with L27P counted along it

Structure (SMILES) | AFM morphology of aggregates (R2R3 (WT) tau peptide) | AFM morphology of aggregates (R2R3 (V287I) tau peptide) | remaining activity at 0.1 µM (R2R3 (P301L) tau peptide [1]; R2R3 P301L 50 μM, compound 0.1 μM, read-out: aggregation (% of control), AUC of ThT fluorescence) [%] | remaining activity at 10 µM (R2R3 (P301L) tau peptide [1]; R2R3 P301L 50 μM, compound 10 μM, read-out: aggregation (% of control), AUC of ThT fluorescence) [%] | ThT-stained aggregates, confocal imaging (R2R3 (P301L) tau peptide [1]; compound 10 μM) | AFM morphology of aggregates (R2R3 (P301L) tau peptide [2]) | Kd (R2R3 (N279K) tau peptide) [µM] | kon (R2R3 (N279K) tau peptide; SPR, R2R3 N279K) [M⁻¹ s⁻¹] | koff (R2R3 (N279K) tau peptide; SPR, R2R3 N279K, read-out: Koff) [s⁻¹] | aggregation (% of control), AUC of ThT fluorescence (R2R3 (P301L) tau peptide [1]; R2R3 P301L 50 μM, compound 0.1 μM) [%] | aggregation (% of control), AUC of ThT fluorescence (R2R3 (P301L) tau peptide [1]; R2R3 P301L 50 μM, compound 10 μM) | Kon (R2R3 (N279K) tau peptide; SPR, R2R3 N279K) [M⁻¹ s⁻¹] | koff (R2R3 (N279K) tau peptide; SPR, R2R3 N279K) [s⁻¹] | Kd (R2R3 (N279K) tau peptide; SPR, R2R3 N279K peptide immobilized, 25°C, PBS pH 7.4, read-out: KD) [µM]
O=C1c2ccccc2C(=O)c2c(O)c(O)cc(O)c21 [PUR, purpurin] | shorter, fragmented fibrils | no fibrillar or aggregated structures were detected | 47 | < 10 | marked reduction in ThT signal | only sparse fibrils | 4.22 | 70.3 | 0.000297 | – | – | – | – | –
C/C=C(/C=O)[C@@H](CC=O)CC(=O)OCCc1ccc(O)cc1 [OLC, oleocanthal] | shorter, fragmented fibrils | no fibrillar or aggregated structures were detected | – | – | marked reduction in ThT signal | only sparse fibrils | – | – | – | 8 | below 10% | 34.60 | 6.87e-05 | 1.98
